The NIST ThermoML archive (doi:10.1016/j.jct.2014.01.012)

Test: xn = mol fraction of the nth substance listed
Conditions: 101 kPa, Liquid

CCCCCCCC[n+]1ccn(C)c1.F[P-](F)(F)(F)(F)F [1-octyl-3-methylimidazolium hexafluorophosphate] + CCCCOC(C)=O
Conditions | mass density [kg/m3] | speed of sound [m/s]
293.15 K, x1 = 0.1078 | 957.599 | 1231.1
293.15 K, x1 = 0.2016 | 1010.44 | 1251
293.15 K, x1 = 0.3056 | 1058.02 | 1273.2
293.15 K, x1 = 0.3855 | 1088.56 | 1291.6
293.15 K, x1 = 0.4815 | 1119.98 | 1309.4
293.15 K, x1 = 0.5918 | 1150.6 | 1328.2
293.15 K, x1 = 0.6857 | 1173.18 | 1343.6
293.15 K, x1 = 0.7784 | 1193.01 | 1358.4
293.15 K, x1 = 0.8946 | 1215.11 | 1375.1
293.15 K, x1 = 1 | 1222.81 | 1388.2
298.15 K, x1 = 0.1078 | 953.226 | 1211.6
298.15 K, x1 = 0.2016 | 1006.23 | 1232.7
298.15 K, x1 = 0.3056 | 1053.87 | 1256.9
298.15 K, x1 = 0.3855 | 1084.42 | 1275
298.15 K, x1 = 0.4815 | 1115.96 | 1293.4
298.15 K, x1 = 0.5918 | 1146.75 | 1313.3
298.15 K, x1 = 0.6857 | 1169.44 | 1328.8
298.15 K, x1 = 0.7784 | 1189.32 | 1343.7
298.15 K, x1 = 0.8946 | 1211.35 | 1361.6
298.15 K, x1 = 1 | 1218.9 | 1373.4
303.15 K, x1 = 0.1078 | 948.745 | 1192.2
303.15 K, x1 = 0.2016 | 1001.93 | 1214.5
303.15 K, x1 = 0.3056 | 1049.62 | 1239.7
303.15 K, x1 = 0.3855 | 1080.26 | 1258.8
303.15 K, x1 = 0.4815 | 1111.97 | 1278.6
303.15 K, x1 = 0.5918 | 1142.89 | 1298.6
303.15 K, x1 = 0.6857 | 1165.73 | 1314.7
303.15 K, x1 = 0.7784 | 1185.68 | 1329.6
303.15 K, x1 = 0.8946 | 1207.65 | 1347.1
303.15 K, x1 = 1 | 1214.96 | 1359.3
308.15 K, x1 = 0.1078 | 944.257 | 1172.8
308.15 K, x1 = 0.2016 | 997.643 | 1196.4
308.15 K, x1 = 0.3056 | 1045.4 | 1222.6
308.15 K, x1 = 0.3855 | 1076.13 | 1242.8
308.15 K, x1 = 0.4815 | 1107.98 | 1263.5
308.15 K, x1 = 0.5918 | 1139.12 | 1284
308.15 K, x1 = 0.6857 | 1162.11 | 1300.8
308.15 K, x1 = 0.7784 | 1182.13 | 1315.8
308.15 K, x1 = 0.8946 | 1204.03 | 1333.5
308.15 K, x1 = 1 | 1211.13 | 1345.8
313.15 K, x1 = 0.1078 | 939.644 | 1153.7
313.15 K, x1 = 0.2016 | 993.304 | 1178.5
313.15 K, x1 = 0.3056 | 1041.23 | 1205.7
313.15 K, x1 = 0.3855 | 1072.05 | 1226.9
313.15 K, x1 = 0.4815 | 1104.1 | 1248.4
313.15 K, x1 = 0.5918 | 1135.23 | 1269.7
313.15 K, x1 = 0.6857 | 1158.31 | 1286.8
313.15 K, x1 = 0.7784 | 1178.4 | 1302.1
313.15 K, x1 = 0.8946 | 1200.3 | 1322.1
313.15 K, x1 = 1 | 1207.33 | 1332.7
318.15 K, x1 = 0.1078 | 935.027 | 1134.6
318.15 K, x1 = 0.2016 | 988.947 | 1160.7
318.15 K, x1 = 0.3056 | 1037 | 1189
318.15 K, x1 = 0.3855 | 1067.9 | 1211.2
318.15 K, x1 = 0.4815 | 1100.12 | 1233.6
318.15 K, x1 = 0.5918 | 1131.33 | 1255.5
318.15 K, x1 = 0.6857 | 1154.61 | 1273.1
318.15 K, x1 = 0.7784 | 1174.85 | 1288.7
318.15 K, x1 = 0.8946 | 1196.83 | 1309.5
318.15 K, x1 = 1 | 1203.5 | 1320.1
323.15 K, x1 = 0.1078 | 930.067 | 1115.7
323.15 K, x1 = 0.2016 | 984.404 | 1143
323.15 K, x1 = 0.3056 | 1032.8 | 1172.3
323.15 K, x1 = 0.3855 | 1063.84 | 1195.6
323.15 K, x1 = 0.4815 | 1096.14 | 1218.8
323.15 K, x1 = 0.5918 | 1127.43 | 1241.6
323.15 K, x1 = 0.6857 | 1150.89 | 1259.4
323.15 K, x1 = 0.7784 | 1171.35 | 1275.5
323.15 K, x1 = 0.8946 | 1193.45 | 1296.1
323.15 K, x1 = 1 | 1199.67 | 1307.7
